# Measured values as given in article PMC3583384 (Journal of medicinal chemistry, 2012).
# Entries after “also recorded” stand apart in the source; their conditions may differ. Read-outs that look alike come from different tables or passages of the source.
# Assays:
# iron overloaded primates [1] = conditions: cited from earlier work
# rats = conditions: cited from earlier work
# [2] = tested on: non-iron-overloaded bile duct-cannulated rats; conditions: rats po 150 µmol/kg, cited from earlier work; for relative percentages of the iron excreted in the bile and urine [bile/urine]: Cremophor RH-40/water
# [3] = cited from earlier work
# patients = conditions: clinical trial, twice daily dosing; cited from earlier work
# iron overloaded primates [4] = conditions: primates po 75 µmol/kg, monosodium salt
# [5] = tested on: rats with normal iron stores; conditions: for BUN / SCr: rats po 237 µmol/kg b.i.d. × 7 d (6: euthanized day 8)
# [6] = Ligand-plasma binding, rodent plasma; format: in vitro ADME; conditions: 37 °C, 4 h, 3,000 MWCO filter
# [7] = Ligand-plasma binding, primate plasma; format: in vitro ADME; conditions: 37 °C, 4 h, 3,000 MWCO filter
smiles,measurement,setting,value
"C[C@]1(C(=O)[O-])CSC(c2ncccc2O)=N1.[Na+] [Compound 1, (S)-4,5-dihydro-2-(3-hydroxy-2-pyridinyl)-4-methyl-4-thiazolecarboxylic acid]",relative percentages of the iron excreted in the feces and urine [feces/urine],iron overloaded primates [1]; primates po 150 µmol/kg,78/22
same,nephrotoxicity,rats; rats po once daily 384 µmol/kg/d,severely nephrotoxic
same,relative percentages of the iron excreted in the bile and urine [bile/urine],[2],93/7
same,time at which deferration had returned to baseline,[2],≤ 12 h
"C[C@]1(C(=O)[O-])CSC(c2ccccc2O)=N1.[Na+] [Compound 2, (S)-4,5-dihydro-2-(2-hydroxyphenyl)-4-methyl-4-thiazolecarboxylic acid]",relative percentages of the iron excreted in the feces and urine [feces/urine],iron overloaded primates [1]; primates po 75 µmol/kg,76/24
same,gastrointestinal toxicity,[3],serious gastrointestinal (GI) problems
same,nephrotoxicity,[3],not overtly nephrotoxic
same,relative percentages of the iron excreted in the bile and urine [bile/urine],[2],100/0
same,time at which deferration had returned to baseline,[2],≤ 12 h
"C[C@]1(C(=O)[O-])CSC(c2ccc(O)cc2O)=N1.[Na+] [Compound 3, (S)-2-(2,4-dihydroxyphenyl)-4,5-dihydro-4-methyl-4-thiazolecarboxylic acid]",renal findings in patients,patients,increases in blood urea nitrogen (BUN) and serum creatinine (SCr) levels; also recorded: induced proximal tubule nephrotoxicity
"COCCOCCOCCOc1ccc(C2=N[C@@](C)(C(=O)O)CS2)c(O)c1 [Compound 4, (S)-4,5-dihydro-2-[2-hydroxy-4-(3,6,9-trioxadecyloxy)]-4-methyl-4-thiazolecarboxylic acid]",nephrotoxicity,rats; rats po once or twice daily,virtually nephrotoxicity-free
"C[C@]1(C(=O)[O-])CSC(c2ncc(O)cc2O)=N1.[Na+] [Compound 6, (S)-4,5-dihydro-2-(3,5-dihydroxy-2-pyridinyl)-4-methyl-4-thiazolecarboxylic acid]",relative percentages of the iron excreted in the feces and urine [feces/urine],iron overloaded primates [4],58/42
same,urinary Kim-1,"[5]; rats po 237 µmol/kg b.i.d., until day 5",< 50 ng/kg/24h
"COCCOCCOc1cnc(C2=N[C@@](C)(C(=O)[O-])CS2)c(O)c1.[Na+] [Compound 8, (S)-4,5-dihydro-2-[3-hydroxy-5-(3,6-dioxaheptyloxy)-2-pyridinyl]-4-methyl-4-thiazolecarboxylic acid]",BUN,[5],well within the normal range
same,SCr,[5],well within the normal range
"COCCOCCOc1ccnc(C2=N[C@@](C)(C(=O)[O-])CS2)c1O.[Na+] [Compound 10, (S)-4,5-dihydro-2-[3-hydroxy-4-(3,6-dioxaheptyloxy)-2-pyridinyl]-4-methyl-4-thiazolecarboxylic acid]",binding of the ligand to plasma,[6],"little, if any, binding"
same,binding of the ligand to plasma,[7],"little, if any, binding"
same,BUN,[5],well within the normal range
same,SCr,[5],well within the normal range
